Assay results published in patent publication US7674792B2, “5(Z)-5-(6-quinoxalinylmethylidene)-2-[2,6-dichlorophenyl)amino]-1,3-thiazol-4(5H)-one” (GlaxoSmithKline LLC, priority 2005, dated 2010).
Counter-ions that a name gives are not always drawn.

Assays:
[1] = solubility in pH 7.4 phosphate buffer by HPLC; type: physicochemical; conditions: 25 °C, aqueous buffer; sodium salt; pH 7.4, 0.05M phosphate buffer; maximum total concentration 200 uM; 25 deg; read-out: Solvent Solubility at 25 deg, Water pH 7.4
Procedure: The solubility of each compound was determined as follows: two samples are prepared for each compound. One (the standard sample) contains the compound at a fixed concentration of 20 uM in an aqueous/organic mixed solvent cocktail. The other (the test sample) contains the compound at a maximum total concentration of 200 uM in pH 7.4, 0.05M phosphate buffer. The test sample is spun for 15 minutes to remove any undissovled solid. HPLC analyses are performed on these samples. The relative peak areas are used for computing the solubility. The sodium salt of each compound was used for the comparison.

[2] = oral blood exposure (DNAUC) in rats; type: in vivo, male Sprague-Dawley rats; design: unit not given here; conditions: sodium salt, oral gavage, dose ~1-4 mg/kg, 50% PEG-400, 10% ethanol, 40% of 40% (w/v) aqueous Encapsin
Procedure: Blood (120 microliters) was sampled at the following time intervals: 0, 20, 40, 60,120,180, 240, 360, 480, and 1440 min. […] The oral exposures of the sodium salt of Compound B and the sodium salt of Compound C were quantified by the same method.

[3] = bioavailability in the Beagle dog; type: in vivo
[4] = physical and chemical stability / hygroscopicity of the crystalline compound; type: physicochemical

solubility [1] | Oral DNAUC rats (Sprague-Dawley) [2] | bioavailability [3] | hygroscopicity [4] | physical and chemical stability [4] | Structure (SMILES)
31 µM | – | – | – | – | O=C1NC(=Nc2c(Cl)cccc2Cl)S/C1=C\c1ccc2nccnc2c1 [Compound A · Na, (5Z)-5-(6-quinoxalinylmethylidene)-2-[(2,6-dichlorophenyl)amino]-1,3-thiazol-4(5H)-one sodium salt]
– | 0.34 | – | – | – | O=C1NC(=Nc2ccccc2Cl)S/C1=C\c1ccc2nccnc2c1 [Compound C · Na, 2-(2-chloro-phenylimino)-5-(quinoxalin-6-ylmethylene)-thiazolidin-4-one sodium salt]
6 µM | 0.49 | – | – | – | O=C1NC(=Nc2c(Cl)cccc2Cl)S/C1=C\c1ccc2ncccc2c1 [Compound B · Na, 2-(2,6-dichloro-phenylimino)-5-(quinolin-6-ylmethylene)-thiazolidin-4-one sodium salt, reference compound]
– | – | demonstrated bioavailability | non-hygroscopic | physically and chemically stable | O=C1NC(=Nc2c(Cl)cccc2Cl)S/C1=C\c1ccc2nccnc2c1 [Compound D, (5Z)-5-(6-quinoxalinylmethylidene)-2-[(2,6-dichlorophenyl)amino]-1,3-thiazol-4(5H)-one meglumine]
